Experimental data published in paper PMC7967160, “Synthesis and Antiviral Evaluation of (1,4-Disubstituted-1,2,3-Triazol)-(E)-2-Methyl-but-2-Enyl Nucleoside Phosphonate Prodrugs” (Molecules, 2021).
pEC50: −log10 of the molar value. Where “and” joins values, the source holds several entries; their conditions need not be identical. Equal values may be shown once.

Columns and labels:
CEM cells = tested on: CEM cells; parameters: method as in PMID 23911854; conditions: cited from earlier work
[1] = tested on: human hepatitis C virus (HCV); parameters: method as in PMID 23911854; conditions: at 10 μM; cited from earlier work
in vitro [2] = conditions: human
HBV [3] = assay: HBV assay in Huh7 cells transfected with pCI_HBVpg1820, intracapsid viral DNA by real-time PCR; assay type: cell-based, hepatitis B virus (HBV); conditions: for inhibition at 10 µM: Hepatitis B virus, Huh-7, 96 h
Method: In Huh7 cells: antiviral activity against HBV in cell culture was measured as previously described. Briefly, Huh7 cells were transfected with plasmid pCI_HBVpg1820 containing 1.1 unit of HBV genome under the control of a human cytomegalovirus (CMV) promoter. The drugs were stored at 1000× in DMSO at −20 °C. For each experiment, the drugs were diluted in DMEM cell culture medium (Thermo Fisher Scientific, Artenay, France) to a final concentration of 10 μM. All drugs were tested in triplicate in two independent experiments. After 4 days of culture, intracapsid viral DNA was quantified by duplex real-time PCR, using primers described elsewhere, on a LightCycler 480 II apparatus (Roche Diagnostics France, Meylan, France) using TaqMan Universal PCR Mastermix II without UNG (Thermo Fisher Scientific, Artenay, France). Cells were quantified using primers by real-time PCR, using primers HPRT1_F (5′-[…]) and HPRT1_R (5′-[…]), on a LightCycler 480 II apparatus (Roche) using a LightCycler® 480 SYBR Green I Master (Roche Diagnostics France, Meylan, France). Cycling reactions were performed with the following parameters: 5 min at 95 °C, followed by 45 cycles of 10 s at 95 °C, 15 s at 60 °C, 10 s at 72 °C. The inhibition of HBV replication (%) and cell culture viability (%) were quantified using the following formulas. Inhibition of HBV replication (%)=1− HBV DNA copy numberDrug/HBV DNA copy numberCell culture medium Cell viability (%)= HPRT1 DNA copy numberDrug/HPRT1 DNA copy numberCell culture medium

in vitro [4] = assay type: cell-based; conditions: human; PBM cells; read-out: MTS Cytotoxicity (IC50, μM) PBM
Method: (§1) Assays were performed in human peripheral blood mononuclear (PBM) and human liver (HepG2) cells via MTS assay using the CellTiter 96® Non-Radioactive Cell Proliferation (Promega) kit as previously described^3. Cytotoxicity was expressed as the concentration of test compounds that inhibited cell proliferation by 50% (IC50) and calculated using the Chou and Talalay method.

[5] = tested on: SARS-CoV-2 strain BavPat1; assay: SARS-CoV-2 assay in Vero E6 cells (CellTiter-Blue); conditions: 10 μM
[6] = Cell culture viability in the Huh7 HBV assay (HPRT1 DNA copy number); conditions: human
HBV [7] = assay: HBV assay in HepAD38 cells, real-time PCR for HBV DNA in supernatant; assay type: cell-based; conditions: Hepatitis B virus, 168 h, 7 days
Method: In HepAD38 cells were seeded at 50,000 cells/well in collagen-coated 96-well plates. Test compounds or 2′,3′-didéoxy-3′-thiacytidin (3TC) (control) were added to HepAD38 cells to a final concentration of 10 μM.
Real-Time PCR for HBV DNA. The experiment lasted 7 days. On day 7, total DNA was purified from the supernatant using a commercially available kit (DNeasy 96 Blood & Tissue kit, Qiagen). The HBV DNA was amplified in a real-time PCR assay using a LightCycler 480 (Roche) as described elsewhere. All samples were tested in duplicate in two to three independent experiments. Analysis: The concentration of compound that inhibited HBV DNA replication by 50% (EC50) was determined by linear regression.

HIV-1 LAI = assay: HIV assay in human PBM cells infected with HIV-1 LAI, RT quantification; assay type: cell-based; conditions: Human immunodeficiency virus 1, PBMC; 10 μM, PBM cells, HIV-1 LAI
Method: The assay was performed as described by Schinazi et al. with minor modifications. […] The supernatants were harvested, and the HIV-1 RT was quantified.

[8] = Cytotoxicity MTS assay in HepG2 cells; assay type: cell-based; conditions: human
Method: as §1

hepatitis B virus (HBV) = assay: Anti-HBV activity of compound 6 (unpublished data); assay type: cell-based; conditions: read-out: EC50 (HBV)
in vitro [9] = assay: in vitro
[10] = 10 μM, Huh7 cells, 4 days, read-out: HBV % Inhibition Huh7
[11] = read-out: HBV % Inhibition Huh7, 10 μM, Huh7 cells, 4 days

Row | SMILES | CC50 (CEM cells) [µM] | % of inhibition (HCV) [1] | viability at 4 days, 10 µM (in vitro [2]) [%] | inhibition at 10 µM (HBV [3]; [10]) [%] | IC50 (in vitro [4]) [µM] | SARS-CoV-2 % Inhibition Vero E6 [5] [%] | viability at 4 days, 10 µM [6] [%] | inhibition at 10 µM (HBV [7]) [%] | inhibition at 10 µM (HIV-1 LAI) [%] | IC50 [8] [µM] | HBV % Inhibition Huh7 (HBV [3]; 10 μM, Huh7 cells, 4 days) [%] | inhibition at 10 µM (HBV [3]; [11]) [%] | pEC50 (hepatitis B virus (HBV)) | CC50 (in vitro [9]) [µM] | anti-HBV activity in words (HBV [3]; compared to entecavir (Huh7) and lamivudine (HepAd38))
1 | CCCc1ccc(-c2cn(C/C=C/CP(=O)(OCOC(=O)C(C)(C)C)OCOC(=O)C(C)(C)C)nn2)cc1 [Compound 5] | 55.3 | 95.6% and 95% |  |  |  |  |  |  |  |  |  |  |  |  | 
2 | C=C1[C@H](CO)[C@@H](O)C[C@@H]1n1cnc2c(=O)[nH]c(N)nc21 [Entecavir, reference compound] |  |  | 96 | 92 |  |  |  |  |  |  |  |  |  |  | 
3 | C/C(=C\CP(=O)(OCOC(=O)OC(C)C)OCOC(=O)OC(C)C)Cn1cc(C2CC2)nn1 [Compound 11f, [[(E)-4-(4-Cyclopropyltriazol-1-yl)-3-methyl-but-2-enyl]-(isopropoxycarbonyloxymethoxy)phosphoryl]oxymethyl isopropyl carbonate] |  |  |  | < 1 | 25.5 | <1 | 100 | 36.3 | 30.7 | > 100 |  |  |  |  | 
4 | C/C(=C\CP(=O)(OCOC(=O)OC(C)C)OCOC(=O)OC(C)C)Cn1cc(C=O)nn1 [Compound 11i, [[(E)-4-(4-Formyltriazol-1-yl)-3-methyl-but-2-enyl]-(isopropoxycarbonyloxymethoxy)phosphoryl]oxymethyl isopropyl carbonate] |  |  |  | 33 | 75.1 | <1 | 95 | 6.1 | 28.4 | > 100 |  |  |  |  | 
5 | CCCCCCCc1ccc(-c2cn(C/C(C)=C/CP(=O)(OCOC(=O)OC(C)C)OCOC(=O)OC(C)C)nn2)cc1 [Compound 11e, [[(E)-4-[4-(4-Heptylphenyl)triazol-1-yl]-3-methyl-but-2-enyl]-(isopropoxycarbonyloxymethoxy)phosphoryl]oxymethyl isopropyl carbonate] |  |  |  |  | 9.2 | <1 | 95 | 33.5 | 29.9 | 90.8 | 50 | > 40 |  |  | 
6 | CCCc1ccc(-c2cn(C/C(C)=C/CP(=O)(OCOC(=O)OC(C)C)OCOC(=O)OC(C)C)nn2)cc1 [Compound 11a, [[(E)-4-[4-(4-Propylphenyl)triazol-1-yl]-3-methyl-but-2-enyl]-(isopropoxycarbonyloxymethoxy)phosphoryl]oxymethyl isopropyl carbonate] |  |  |  |  | 50.2 | <1 | 96 | 19.6 | < 1 | 18.3 | 51 | > 40 |  |  | 
7 | C/C(=C\CP(=O)(OCOC(=O)OC(C)C)OCOC(=O)OC(C)C)Cn1cc(CO)nn1 [Compound 11h, [[(E)-4-[4-(Hydroxymethyl)triazol-1-yl]-3-methyl-but-2-enyl]-(isopropoxycarbonyloxymethoxy)phosphoryl]oxymethyl isopropyl carbonate] |  |  |  | 28 | 76.4 | 12 | 100 | 15.1 | < 1 | > 100 |  |  |  |  | 
8 | C/C(=C\CP(=O)(OCOC(=O)OC(C)C)OCOC(=O)OC(C)C)Cn1cnc2c(O)nc(N)nc21 [Compound 6, bis(POC)-(E)-2-methyl-but-2-enylguanine] |  |  |  |  |  |  |  |  |  |  |  |  | 5.07 | > 100 | 
9 | CCCCc1ccc(-c2cn(C/C(C)=C/CP(=O)(OCOC(=O)OC(C)C)OCOC(=O)OC(C)C)nn2)cc1 [Compound 11b, [[(E)-4-[4-(4-Butylphenyl)triazol-1-yl]-3-methyl-but-2-enyl]-(isopropoxycarbonyloxymethoxy)phosphoryl]oxymethyl isopropyl carbonate] |  |  |  | 25 | 19.4 | <1 | 88 | 14.4 | < 1 | 16.2 |  |  |  |  | 
10 | C/C(=C\CP(=O)(OCOC(=O)OC(C)C)OCOC(=O)OC(C)C)Cn1cc(C(N)=O)nn1 [Compound 11j, [[(E)-4-(4-Carbamoyltriazol-1-yl)-3-methyl-but-2-enyl]-(isopropoxycarbonyloxymethoxy)phosphoryl]oxymethyl isopropyl carbonate] |  |  |  |  | 76.8 | <1 | 100 | 31.3 | < 1 | > 100 | 40 | > 40 |  |  | 
11 | COC(=O)c1cn(C/C(C)=C/CP(=O)(OCOC(=O)OC(C)C)OCOC(=O)OC(C)C)nn1 [Compound 11n, Methyl-1-[(E)-4-[bis(isopropoxycarbonyloxymethoxy)phosphoryl]-2-methyl-but-2-enyl]triazole-4-carboxylate] |  |  |  | 28 | 40.9 | <1 | 60 | 3.9 | < 1 | > 100 |  |  |  |  | 
12 | C/C(=C\CP(=O)(OCOC(=O)OC(C)C)OCOC(=O)OC(C)C)Cn1cc(-c2ccc([N+](=O)[O-])cc2)nn1 [Compound 11l, [[(E)-4-(4-Nitrophenyltriazol-1-yl)-3-methyl-but-2-enyl]-(isopropoxycarbonyloxymethoxy)phosphoryl]oxymethyl isopropyl carbonate] |  |  |  |  | 23.5 | 10 | 100 | 42.6 | 38.8 | 85.3 | 40 | > 40 |  |  | good activity
